Literature values, collected in patent US9293280B2, “Mixture of hydrofluoroolefine and hydrofluorocarbide to improve the internal ARC resistance in medium and high voltage electric apparatus” (priority 2012, dated 2016).

Legend:
animal population = conditions: causing the death of 50% of an animal population
human = conditions: average limiting content, 8 hours of work for 5 days per week without harmful effect

O=C(C(F)(F)F)C(F)(C(F)(F)F)C(F)(F)F [C5K, decafluoro-2-methylbutan-3-one]
lethal dose LD50 (animal population): greater than 200 000 ppm
average exposure value AEV (human): 1000 ppm

F/C=C/C(F)(F)F [HFO-1234ze, trans-1,3,3,3-tetrafluoro-1-propene]
lethal dose LD50 (animal population): > 200 000 ppm
average exposure value AEV (human): 1000 ppm
